A short description of series [1]: Encapsulation efficiency of lipid nanoparticles (Quant-it Ribogreen RNA quantification assay). The series is classed as physicochemical. The note with it: LNP encapsulating hEPO mRNA. The protocol:
(§1) Briefly, a cationic lipid provided herein, DSPC, cholesterol, and PEG-lipid were solubilized in ethanol at a molar ratio of 50:10:38.5:1.5, and mRNA were diluted in 10 to 50 mM citrate buffer, pH=4. The LNPs were prepared at a total lipid to mRNA weight ratio of approximately 10:1 to 30:1 by mixing the ethanolic lipid solution with the aqueous mRNA solution at a volume ratio of 1:3 using a microfluidic apparatus, total flow rate ranging from 9-30 mL/min. Ethanol were thereby removed and replaced by DPBS using dialysis. Finally, the lipid nanoparticles were filtered through a 0.2 μm sterile filter.
(§2) Lipid nanoparticle size were determined by dynamic light scattering using a Malvern Zetasizer Nano ZS (Malvern UK) using a 173° backscatter detection mode. The encapsulation efficiency of lipid nanoparticles were determined using a Quant-it Ribogreen RNA quantification assay kit (Thermo Fisher Scientific, UK) according to the manufacturer's instructions.

The nature of series [2]: Lipid nanoparticle size by dynamic light scattering (Malvern Zetasizer Nano ZS). Type of series: physicochemical. The following applies: LNP: cationic lipid/DSPC/cholesterol/PEG-lipid 50:10:38.5:1.5, hEPO mRNA. The protocol: as §1, §2
Series [3] deals with human erythropoietin (hEPO) mRNA. The experiment in a line: Animal study: hEPO expression after tail vein injection of LNPs encapsulating hEPO mRNA (serum ELISA). Type of series: in vivo. The following applies: hEPO level, female ICR mice, 0.5 mg/kg, 6 hours post administration; for Expression at 6 h (μg/ml): class symbols, Table 3. The protocol: Lipid nanoparticles comprising compounds 1-10 encapsulating human erythropoietin (hEPO) mRNA were systemically administered to 6-8 week old female ICR mice (Xipuer-Bikai, Shanghai) at 0.5 mg/kg dose by tail vein injection and mice blood were sampled at specific time points (e.g., 6 hours) post administration. In addition to the aforementioned tested groups, lipid nanoparticles comprising dilinoleylmethyl-4-dimethylaminobutyrate (DLin-MC3-DMA, usually abbreviated to MC3) encapsulating hEPO mRNA were similarly administered at the same dose to age and gender comparative groups of mice as a positive control.
Mice were euthanized by CO2 overdoses after the last sampling time point. Serum were separated from total blood by centrifugation at 5000 g for 10 minutes at 4° C., snap-frozen and stored at −80° C. for analysis. ELSA assay were carried out using a commercial kit (DEP00, R&D systems) according to manufacturer's instructions.
Characteristics of tested lipid nanoparticles, including hEPO expression levels (μg/ml) measured from the tested group are listed the tables below and plotted in FIG. 2.
In general terms: ELISA stands for enzyme-linked immunosorbent assay.

In the case of `CCCCCCCCC(CCCCCCCC)COC(=O)CCCCCN(CCCCCC(=O)OCC(CCCCCCCC)CCCCCCCC)CCN(CCO)C1CCC(F)(F)CC1` [Compound 78], in series [1] (Table 3), the “Encapsulation Efficiency” value stood at 92.4%. In series [2] (Table 3), this compound had a polydispersity of 0.091 and a size nm of 44.47 nm. In addition, in series [3], the “Expression at 6 h (μg/ml)” value was “C (≥0.1 and <1)”.
For the compound `CCCCCCCCC(CCCCCC)COC(=O)CCCCCN(CCCCCC(=O)OCC(CCCCCC)CCCCCCCC)CCN(CCO)C1CCN(C)CC1` (stereo not drawn) [Compound 94], the “Encapsulation Efficiency” value in series [1] (Table 3) was 100.3%. In series [2] (Table 3), the polydispersity is 0.298 and the size nm turned out to be 67.01 nm. Further, the “Expression at 6 h (μg/ml)” value in series [3] is “D (<0.1)”.
Take `CCCCC/C=C\C/C=C\CCCCCCCCC(CCCCCCCC/C=C\C/C=C\CCCCC)OC(=O)CCCN(C)C` [MC3, dilinoleylmethyl-4-dimethylaminobutyrate, reference compound]: in series [1] (Table 2), the “Encapsulation Efficiency” value is on record as 98.5%. In addition, in series [2] (Table 2), the polydispersity is 0.042 and the “size nm” value came out at 79.8 nm. For the same compound, the “Expression at 6 h” value in series [3] (Table 2) was 2.35 µg/mL.
Regarding `CCCCCCCCC(CCCCCC)CC(=O)NCCCCCN(CCCCCOC(=O)CC(CCCCCC)CCCCCCCC)CCN(CCO)C1CCCCC1` (stereo not drawn) [Compound 131], the “Encapsulation Efficiency” value in series [1] (Table 3) came to 80.00%. In series [2] (Table 3), the polydispersity is 0.064 and the size nm is listed as 79.11 nm. The “Expression at 6 h (μg/ml)” value in series [3] is on record as “A (≥2)”.
Turning to `CCCCCCCCC(CCCCCC)CNC(=O)CCCCCN(CCCCCC(=O)NCC(CCCCCC)CCCCCCCC)CCN(CCO)C1CC1` (stereo not drawn) [Compound 119], the “Encapsulation Efficiency” value in series [1] (Table 3) is on record as 93.2%. Besides, in series [2] (Table 3), the polydispersity is given as 0.06 and the size nm is listed as 67.17 nm. The “Expression at 6 h (μg/ml)” value in series [3] was “D (<0.1)”.
On to `CCCCCCCCC(CCCCCC)COC(=O)CCCCCN(CCCCCC(=O)OCC(CCCCCC)CCCCCCCC)CCN(CCCCCCO)C1CCC1` (stereo not drawn) [Compound 30], for which the “Encapsulation Efficiency” value in series [1] (Table 3) was 95.9%. In addition, in series [2] (Table 3), the polydispersity amounted to 0.071 and the size nm is reported as 80.46 nm. The “Expression at 6 h (μg/ml)” value in series [3] is “B (≥1 and <2)”.
On to `CCCCCCCCC(CCCCCC)COC(=O)CCCCCN(CCCCCC(=O)OCC(CCCCCC)CCCCCCCC)CCN(C1CCCCC1)C1CCC(O)CC1` (stereo not drawn) [Compound 99], for which the “Encapsulation Efficiency” value in series [1] (Table 3) was determined as 100.2%. In series [2] (Table 3), the polydispersity came to 0.1 and the size nm turned out to be 66.06 nm. Besides, the “Expression at 6 h (μg/ml)” value in series [3] is “C (≥0.1 and <1)”.
As for `CCCCCCCCC(CCCCCC)COC(=O)CCCCCN(CCCCCC(=O)OCC(CCCCCC)CCCCCCCC)CCN(CC)C1CCC(O)CC1` (stereo not drawn) [Compound 55], the “Encapsulation Efficiency” value in series [1] (Table 3) is 96.7%. Also, in series [2] (Table 3), the polydispersity is 0.109 and the size nm was 95.51 nm. Also, the “Expression at 6 h (μg/ml)” value in series [3] was “C (≥0.1 and <1)”.
In the case of `CCCCCCCCC(CCCCCC)CNC(=O)CCCCCN(CCCCCC(=O)OCC(CCCCCC)CCCCCCCC)CCN(CCO)C1CCC1` (stereo not drawn) [Compound 106], in series [1] (Table 3), the “Encapsulation Efficiency” value was 95.14%. In series [2] (Table 3), this compound showed a polydispersity of 0.174 and a size nm of 76.97 nm. For the same compound, in series [3], the “Expression at 6 h (μg/ml)” value is recorded as “A (≥2)”.
Regarding `CCCCCCCCNC(=O)CCCCCN(CCCCCC(=O)NCCCCCCCC)CCN(CCO)C1CCCCC1` [Compound 123], in series [1] (Table 3), the “Encapsulation Efficiency” value was found to be 30.1%. In series [2] (Table 3), this compound yielded a polydispersity of 0.285 and a size nm of 264.9 nm. For the same compound, the “Expression at 6 h (μg/ml)” value in series [3] was “A (≥2)”.
In the case of `CCCCCCCCC(CCCCCC)CNC(=O)CCCCCN(CCCCCC(=O)NCC(CCCCCC)CCCCCCCC)CCN(CCO)C1CCCCCC1` (stereo not drawn) [Compound 112], the “Encapsulation Efficiency” value in series [1] (Table 3) is reported as 95.9%. In series [2] (Table 3), this compound showed a polydispersity of 0.111 and a size nm of 49.51 nm. In series [3], the “Expression at 6 h (μg/ml)” value is “C (≥0.1 and <1)”.
`CCCCCCCCC(CCCCCC)COC(=O)CCCCCN(CCCCCC(=O)OCC(CCCCCC)CCCCCCCC)CCN(CCO)C1CCC(F)(F)CC1` (stereo not drawn) [Compound 23]: in series [1] (Table 3), the “Encapsulation Efficiency” value worked out at 93.9%. In series [2] (Table 3), this compound returned a polydispersity of 0.14 and a size nm of 60.64 nm. Further, the “Expression at 6 h (μg/ml)” value in series [3] was “B (≥1 and <2)”.
